ChEMBL document CHEMBL3603744, “Structure activity relationship of C-2 ether substituted 1,5-naphthyridine analogs of oxabicyclooctane-linked novel bacterial topoisomerase inhibitors as broad-spectrum antibacterial agents (Part-5)” (Bioorg Med Chem Lett, 2015)
≈ marks a conversion by molar mass, not a printed value. Calls of active or inactive are those of the source. How the calls were made is not given here.

How the values were obtained:
Staphylococcus aureus [1] = assay: Antimicrobial activity against Staphylococcus aureus infected in iv dosed mouse bacteremia survival model; format: functional
Enterococcus faecium = assay: Antimicrobial activity against vancomycin-resistant Enterococcus faecium VanA by micro broth dilution or agar based method; format: functional
Acinetobacter baumannii = assay: Antimicrobial activity against Acinetobacter baumannii IID876 by micro broth dilution or agar based method; format: functional
Escherichia coli = assay: Antimicrobial activity against Escherichia coli ATCC 25922 by micro broth dilution or agar based method; format: functional
Streptococcus pneumoniae = assay: Antimicrobial activity against Streptococcus pneumoniae IID553 by micro broth dilution or agar based method; format: functional
Staphylococcus aureus [2] = assay: Antimicrobial activity against methicillin-resistant Staphylococcus aureus OIT971 by micro broth dilution or agar based method; format: functional, organism-based
Pseudomonas aeruginosa = assay: Antimicrobial activity against Pseudomonas aeruginosa PAO1 by micro broth dilution or agar based method; format: functional
Staphylococcus aureus [3] = assay: Resistance index, ratio of MIC for quinolone-resistant Staphylococcus aureus MS5935 to MIC for quinolone-[…]; format: functional
Staphylococcus aureus [4] = assay: Antimicrobial activity against Staphylococcus aureus Smith by micro broth dilution or agar based method; format: functional

Compound	ED50 (Staphylococcus aureus [1]) [mg/kg]	MIC (Enterococcus faecium) [µg/mL]	MIC (Acinetobacter baumannii) [µg/mL]	MIC (Escherichia coli) [µg/mL]	MIC (Streptococcus pneumoniae) [µg/mL]	growth inhibition (GI) (Staphylococcus aureus [2])	MIC (Pseudomonas aeruginosa) [µg/mL]	Ratio (Staphylococcus aureus [3])	MIC (Staphylococcus aureus [4]) [µg/mL]
COCCOc1ccc2ncc(F)c(CCC34CCC(NCc5ccc6c(n5)NC(=O)CO6)(CC3)CO4)c2n1.Cl	7.2								
CC(C)Oc1ccc2ncc(F)c(CCC34CCC(NCc5ccc6c(n5)NC(=O)CO6)(CC3)CO4)c2n1		8 (≈ 15.3 µM)	8 (≈ 15.3 µM)	16 (≈ 30.7 µM)	2 (≈ 3.83 µM)	Active	32 (≈ 61.4 µM)	<4	0.25 (≈ 0.479 µM)
NCCCCOc1ccc2ncc(F)c(CCC34CCC(NCc5ccc6c(n5)NC(=O)CO6)(CC3)CO4)c2n1		8 (≈ 14.5 µM)	8 (≈ 14.5 µM)	4 (≈ 7.26 µM)	1 (≈ 1.82 µM)	Active	16 (≈ 29.1 µM)		0.5 (≈ 0.908 µM)
N[C@@H]1C(=O)NC[C@H]1Oc1ccc2ncc(F)c(CCC34CCC(NCc5ccc6c(n5)NC(=O)CO6)(CC3)CO4)c2n1		16 (≈ 27.7 µM)	16 (≈ 27.7 µM)	16 (≈ 27.7 µM)	16 (≈ 27.7 µM)	Active	16 (≈ 27.7 µM)		16 (≈ 27.7 µM)
N[C@@H]1CO[C@H]1COc1ccc2ncc(F)c(CCC34CCC(NCc5ccc6c(n5)NC(=O)CO6)(CC3)CO4)c2n1		8 (≈ 14.2 µM)	1 (≈ 1.77 µM)	4 (≈ 7.08 µM)	2 (≈ 3.54 µM)	Active	16 (≈ 28.3 µM)		0.25 (≈ 0.443 µM)
N[C@H]1CO[C@H]1COc1ccc2ncc(F)c(CCC34CCC(NCc5ccc6c(n5)NC(=O)CO6)(CC3)CO4)c2n1		4 (≈ 7.08 µM)	1 (≈ 1.77 µM)	4 (≈ 7.08 µM)	0.5 (≈ 0.886 µM)	Active	32 (≈ 56.7 µM)		0.063 (≈ 0.112 µM)
O=C1COc2ccc(CNC34CCC(CCc5c(F)cnc6ccc(OC[C@H]7C[C@@H]7C(=O)O)nc56)(CC3)OC4)nc2N1		4 (≈ 6.93 µM)	16 (≈ 27.7 µM)	16 (≈ 27.7 µM)	0.25 (≈ 0.433 µM)	Active	16 (≈ 27.7 µM)		0.25 (≈ 0.433 µM)
CCOc1ccc2ncc(F)c(CCC34CCC(NCc5ccc6c(n5)NC(=O)CO6)(CC3)CO4)c2n1		2 (≈ 3.94 µM)	2 (≈ 3.94 µM)	4 (≈ 7.88 µM)	0.5 (≈ 0.985 µM)	Active	8 (≈ 15.8 µM)		0.031 (≈ 0.0611 µM)
N#CC1(COc2ccc3ncc(F)c(CCC45CCC(NCc6ccc7c(n6)NC(=O)CO7)(CC4)CO5)c3n2)CC1		4 (≈ 7.16 µM)	2 (≈ 3.58 µM)	16 (≈ 28.6 µM)	1 (≈ 1.79 µM)	Active	16 (≈ 28.6 µM)		0.063 (≈ 0.113 µM)
C=CCOc1ccc2ncc(F)c(CCC34CCC(NCc5ccc6c(n5)NC(=O)CO6)(CC3)CO4)c2n1		8 (≈ 15.4 µM)	2 (≈ 3.85 µM)	8 (≈ 15.4 µM)	1 (≈ 1.92 µM)	Active	16 (≈ 30.8 µM)	<4	0.063 (≈ 0.121 µM)
O=C1COc2ccc(CNC34CCC(CCc5c(F)cnc6ccc(OC7CCC7)nc56)(CC3)OC4)nc2N1		8 (≈ 15 µM)	8 (≈ 15 µM)	64 (≈ 120 µM)	2 (≈ 3.75 µM)	Active	64 (≈ 120 µM)		0.125 (≈ 0.234 µM)
N[C@@H]1CO[C@@H]1COc1ccc2ncc(F)c(CCC34CCC(NCc5ccc6c(n5)NC(=O)CO6)(CC3)CO4)c2n1		8 (≈ 14.2 µM)	1 (≈ 1.77 µM)	8 (≈ 14.2 µM)	1 (≈ 1.77 µM)	Active	32 (≈ 56.7 µM)		0.125 (≈ 0.221 µM)
O=C(O)CCCCOc1ccc2ncc(F)c(CCC34CCC(NCc5ccc6c(n5)NC(=O)CO6)(CC3)CO4)c2n1		2 (≈ 3.45 µM)	16 (≈ 27.6 µM)	16 (≈ 27.6 µM)	0.25 (≈ 0.431 µM)	Active	16 (≈ 27.6 µM)		0.063 (≈ 0.109 µM)
O=C1COc2ccc(CNC34CCC(CCc5c(F)cnc6ccc(OCC(O)CO)nc56)(CC3)OC4)nc2N1 (configuration not stated)		4 (≈ 7.23 µM)	4 (≈ 7.23 µM)	16 (≈ 28.9 µM)	1 (≈ 1.81 µM)	Active	32 (≈ 57.8 µM)		0.125 (≈ 0.226 µM)
CN(C)C(=O)COc1ccc2ncc(F)c(CCC34CCC(NCc5ccc6c(n5)NC(=O)CO6)(CC3)CO4)c2n1		16 (≈ 28.3 µM)	16 (≈ 28.3 µM)	16 (≈ 28.3 µM)	4 (≈ 7.08 µM)	Active	16 (≈ 28.3 µM)	<4	1 (≈ 1.77 µM)
NCCCCCOc1ccc2ncc(F)c(CCC34CCC(NCc5ccc6c(n5)NC(=O)CO6)(CC3)CO4)c2n1		8 (≈ 14.2 µM)	4 (≈ 7.08 µM)	4 (≈ 7.08 µM)	1 (≈ 1.77 µM)	Active	16 (≈ 28.3 µM)	<4	0.5 (≈ 0.885 µM)
N[C@H]1CO[C@@H]1COc1ccc2ncc(F)c(CCC34CCC(NCc5ccc6c(n5)NC(=O)CO6)(CC3)CO4)c2n1		4 (≈ 7.08 µM)	0.5 (≈ 0.886 µM)	4 (≈ 7.08 µM)	0.5 (≈ 0.886 µM)	Active	16 (≈ 28.3 µM)		0.125 (≈ 0.221 µM)
